From patent US11078245B2, “Colon and pancreas cancer peptidomimetics” (PRECISION BIOLOGICS, INC., priority 2010, dated 2021)
“Also recorded” adds a separate entry of the source. Ends that are not written are not given here.

Legend:
CFPAC1 sup = molecular target: T1, CFPAC1 sup (Homo sapiens, UniProt P98088); experiment: Rabbit immunization, serum binding ELISA; format: in vivo, rabbits; conditions: rabbit serum after third injection
T1 construct: endogenous in cells; host or cells: CFPAC-1 (human pancreatic tumor cell line); cells or serum-free conditioned medium
Method: (§1) An exemplary NPC-1 antigen peptidomimetic, 4-1-4C12 (SEQ ID NO: 5) was conjugated to KLH (Keyhole Limpit Hemocyannin) (“4-1-4-C12-KLH”). […] Further, 4-1-4C12-KLH blocks NPC-1 binding to NPC-1C antigen specifically in competitive ELISA. After confirming the function of 4-1-4C12-KLH, 4-1-4C12-KLH was injected into rabbits. The immunized serum after third injection was tested by binding ELISA to check the function of 4-1-4C12-KLH induced antibody. The plate was coated with 4-1-4C12 peptide or CFPAC1 sup, diluted serum was added to the washed and blocked the plate. Bound rabbit IgG was detected by donkey anti-rabbit IgG-HRP.

4-1-4C12 peptide = experiment: Rabbit immunization, serum binding ELISA; format: in vivo, rabbits; conditions: rabbit serum after third injection
Method: as §1

NPC-1C antigen = experiment: 4-1-4C12-KLH competitive ELISA; format: binding
Method: as §1

NEO-101 antibody = experiment: 4-1-4-C12-KLH binding ELISA

blocking of NPC-1 binding to NPC-1C antigen (NPC-1C antigen): blocks
binding to NEO-101 antibody (NEO-101 antibody): binds to NEO-101 antibody
Substance: 4-1-4-C12-KLH: 4-1-4C12 (SEQ ID NO: 5) conjugated to KLH (Keyhole Limpit Hemocyannin) (SLPDDWFRYINY; also: conjugated to KLH (keyhole limpet hemocyanin))
immunized serum binding to CFPAC1 supernatant (CFPAC1 sup): bind to CFPAC1 human pancreatic cell line supernatant; also recorded: dose dependent manner
immunized serum binding to 4-1-4C12 peptide (4-1-4C12 peptide): binds to 4-1-4C12; also recorded: dose dependent manner
